Results taken from patent publication US20110306922A1, “LIGHT-EMITTING DEVICES FOR PHOTOTHERAPY” (priority 2010, published 2011).

Legend:
[1] = tested on: CHO-K1 (Chinese Hamster Ovarian Cancer, ATCC, CRL-2243) cell line; assay: cells; details: Cricetulus griseus, CHO-K1, light or radiation study, read-out: cells destroyed (cell viability, light dosimetry)
[2] = tested on: CHO-K1 (Chinese Hamster Ovarian Cancer, ATCC, CRL-2243) cell line
[3] = tested on: age-related macular degeneration; assay: Intravenous verteporphin plus red OLED illumination of the retina, age-related macular degeneration; assay type: in vivo, person; details: about 6 mg/m^2 i.v.; about 20 mW/cm^2 for about 42 minutes, about 50 J/cm
Protocol: Verteporphin is intravenously injected, over a period of about 10 minutes at a rate of about 3 mL/min, to a person suffering from age-related macular degeneration. The verteporphin (7.5 mL of 2 mg/mL reconstituted solution, available as Visudyne® from Novartis) is diluted with 5% dextrose to a volume of 30 mL using a sufficient quantity of the reconstituted verteporphin so that the total dose injected is about 6 mg/m^2 of body surface.
The treatment is repeated as needed.

[4] = tested on: presumed ocular histoplasmosis; set-up: species or system person; details: in vivo, iv
pathological myopia = assay: Intravenous verteporphin plus red OLED illumination of the retina, pathological myopia; assay type: in vivo, person; details: about 6 mg/m^2 i.v.; about 20 mW/cm^2 for about 42 minutes, about 50 J/cm2
Protocol: Verteporphin is intravenously injected, over a period of about 10 minute at a rate of about 3 mL/min, to a person suffering from pathological myopia. The verteporphin (7.5 mL of 2 mg/mL reconstituted solution, available as Visudyne® from Novartis) is diluted with 5% dextrose to a volume of 30 mL using a sufficient quantity of the reconstituted verteporphin so that the total dose injected is about 6 mg/m^2 of body surface.
After treatment, the patient's vision is anticipated to be stabilized. The treatment is repeated as needed.

NCC(=O)CCC(=O)O [ALA, 5-aminolevulinic acid]
cytotoxicity at 1000 µM [1]: ~90%
generation of PpIX (fluorescence emission at 635 nm) ([2]; ALA 0.5 mM, 1 mM, 2 mM, incubated about 16 hrs at 37° C.): confirmed
optical microscope images of the cells: healthy leafy type cells transform to droplet type ([2]; after 25 J/cm^2 red light (630 nm) irradiation from OLED): significant cell death

C=Cc1c(C)c2cc3nc(cc4[nH]c(cc5nc(cc1[nH]2)C(C)=C5CCC(=O)O)c(CCC(=O)OC)c4C)[C@@]1(C)C3=CC=C(C(=O)OC)[C@H]1C(=O)OC [Verteporphin]
patient's vision [3]: stabilized
patient's vision [4]: stabilized
patient's vision (pathological myopia): stabilized
